Measurements: patent US5071857A, “2,6-dioxopiperidine derivatives, their preparation and pharmaceutical compositions containing them” (National Research Development Corporation, priority 1983, dated 1991)
Like-named read-outs stand apart in the source and are kept apart here.

Columns and labels:
desmolase [1] = target: T1, desmolase (Bos taurus, UniProt P00189); test: Inhibition of desmolase (mitochondrial fraction of bovine adrenal cortex, 14C-isocaproic acid release from (26-14C)-cholesterol); type: biochemical
T1 construct: The mitochondrial fraction of bovine adrenal cortex provided the source of desmolase; from tissue; host or cells: bovine adrenal cortex, mitochondrial fraction
T1 sequence (P00189 40-520): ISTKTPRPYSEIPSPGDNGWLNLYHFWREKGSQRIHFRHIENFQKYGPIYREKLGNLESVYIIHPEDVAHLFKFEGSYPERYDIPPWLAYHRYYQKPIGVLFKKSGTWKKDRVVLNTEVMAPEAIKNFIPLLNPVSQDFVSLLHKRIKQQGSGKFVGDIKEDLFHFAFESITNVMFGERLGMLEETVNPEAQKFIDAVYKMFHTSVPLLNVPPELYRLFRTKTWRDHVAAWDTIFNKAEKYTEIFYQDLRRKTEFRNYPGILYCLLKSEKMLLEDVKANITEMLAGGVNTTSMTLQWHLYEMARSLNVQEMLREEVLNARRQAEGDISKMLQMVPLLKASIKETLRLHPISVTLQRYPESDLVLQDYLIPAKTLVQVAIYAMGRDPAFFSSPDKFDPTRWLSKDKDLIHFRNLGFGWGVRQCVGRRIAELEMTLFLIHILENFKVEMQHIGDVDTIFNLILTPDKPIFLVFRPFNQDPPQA

aromatase = target: T2, aromatase (Homo sapiens, UniProt P11511); test: Inhibition of aromatase (microsomal fraction of human placental tissue, 3H2O release from (1,2-3H) testosterone); type: biochemical
T2 construct: Aromatase was obtained from the microsomal fraction of human placental tissue; from tissue; host or cells: human placenta, microsomal fraction
T2 sequence (P11511 1-503): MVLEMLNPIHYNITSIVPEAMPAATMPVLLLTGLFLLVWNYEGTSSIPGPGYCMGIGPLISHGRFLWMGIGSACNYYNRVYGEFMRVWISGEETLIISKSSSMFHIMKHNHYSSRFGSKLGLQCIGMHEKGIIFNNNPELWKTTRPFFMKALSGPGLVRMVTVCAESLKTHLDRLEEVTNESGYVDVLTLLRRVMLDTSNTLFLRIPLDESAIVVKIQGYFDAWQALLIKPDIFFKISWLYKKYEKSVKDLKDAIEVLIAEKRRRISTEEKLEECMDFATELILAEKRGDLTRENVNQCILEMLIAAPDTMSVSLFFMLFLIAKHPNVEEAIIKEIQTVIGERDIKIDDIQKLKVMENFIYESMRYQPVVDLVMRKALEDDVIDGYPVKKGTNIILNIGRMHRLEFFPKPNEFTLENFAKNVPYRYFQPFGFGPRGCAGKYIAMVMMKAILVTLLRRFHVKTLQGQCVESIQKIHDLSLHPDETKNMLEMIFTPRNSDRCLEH
Protocol: The activity of various glutarimides against the enzymes aromatase and desmolase was assayed as follows. Each compound was examined over a range of concentrations. At each concentration of inhibitor, samples were removed at three time points. The results were plotted on a graph of product released against time of incubation. The resulting linear graph was used to determine the rate of enzyme reaction at each concentration of inhibitor.
A. Desmolase The mitochondrial fraction of bovine adrenal cortex provided the source of desmolase and the method of isolation was essentially as published by R. B. Hochberg et al., Biochemistry, 13, 603 (1974). The enzyme activity was assayed using (26-^14 C)-cholesterol as substrate and measuring the ^14 C-isocaproic acid released, see R. B. Hochberg et al., supra. and V. I. Uzgiris et al., Endocrinology, 101, 89 (1977). Inhibitor compounds were added in ethanol (microliters) and an equal volume of ethanol was added to the control assay. The total volume of the assay mixture was 1.0 ml. After preincubating the assay tubes at 30° C. for 5 minutes, the reaction was started by the addition of 1 mg of mitochondrial protein. Samples were removed after 2,4 and 6 minutes of incubation and the assay completed as described.

[2] = prior art; cited from earlier work
central nervous system [3] = test: Studies on anticonvulsant properties, pentylenetetrazol-induced convulsions; settings: for prevention of pentylenetetrazol-induced convulsions: pentylenetetrazol 50 mg/kg
central nervous system [4] = test: Behavioral observations (Irwin observational assessment); settings: for Passivity: rating 0-4, 20-30 minutes after injection
central nervous system [5] = test: Rotating rod experiments (rotarod test), drug-induced ataxia; settings: for time of peak effect after injection: i.p.
[6] = system: Rat mammary tumours induced with MNU (N-methyl-N-nitrosourea); test: Tests in vivo on tumour regression, MNU-induced rat mammary tumours; design: species or system rat (Ludwig Wistar/Ola, WF/ICRF/Ola, female); settings: for percentage of tumours which regress (in words): 42 days; for percentage of tumours which regress (in words) / No. tumours grown by more than 100% / No. tumours grown by up to 100% / No. tumours regressed but by less than 50% / No. tumours regressed by 50% or more / No. tumours with no change: 0.165 millimoles/kg/day s.c.; for No. tumours grown by more than 100% / No. tumours grown by up to 100% / No. tumours regressed but by less than 50% / No. tumours regressed by 50% or more / No. tumours with no change: after 6 weeks (42 days)
Protocol: Unlike DMBA (7,12-dimethylbenz[a]anthracene) induced tumours, MNU tumours may be primarily oestrogen-, rather than prolactin-dependent, see Pruitt, Rose and Bryan, Proc. Ann. Cancer Res. 20, 87, (1979).
Using the method of Williams et al., supra, mammary tumours were induced in virgin female rats of the inbred strain Ludwig Wistar/Ola (WF/ICRF/Ola) by intravenous administration of MNU. MNU was dissolved in 0.9% aqueous sodium chloride solution acidified to pH 5 with acetic acid. Starting at age 50 days, each rat received 3 injections at 14 day intervals via the tail vein (5 mg MNU/100 g body weight/injection; injection volume of 0.5 ml/rat). Animals were assigned to experimental groups at 125-140 days after the first injection, with 12 animals in each group. At this time they bore from 1-3 tumours per animal.
Controls received equivalent injections of DMSO alone.
Results were expressed in terms of the percentage of initial tumour volume for each tumour after 42 day, treatment.

[7] = Stability of injection solutions at pH 3.5-4; type: physicochemical
Protocol: This went into solution at low pH very nicely. M NaOH was added to pH 3.5-4. The volume was made up using deionized water.

desmolase [8] = settings: background; cited from earlier work
[9] = 1.5 micromolar (3H) testosterone
[10] = compared with aminoglutethimide

## CCC1(c2cccnc2)CCC(=O)NC1=O (stereo not shown)
Desmolase [1]; 7 micromolar (14C) cholesterol
  IC50 Desmolase: None
aromatase; [9]
  IC50 Aromatase: None

## CCC1(c2ccccn2)CCC(=O)NC1=O (stereo not shown) [3-ethyl-3-(2-pyridyl)-glutarimide]
[2]
  sedative, hypnotic or anti-convulsive effect: sedative and hypnotic effect

## CCC1(c2ccncc2)CCC(=O)NC1=O (stereo not shown) [3-ethyl-3-(4-pyridyl)glutarimide, 3-ethyl-3-(4-pyridyl)-2,6-piperidinedione]
Central nervous system [3]; 400, 300 and 200 mg/kg i.p.
  prevention of pentylenetetrazol-induced convulsions: None of these doses prevented the pentylenetetrazol-induced convulsions
Central nervous system [3]; [10]
  anti-convulsant side-effects: lower than that of aminoglutethimide
Desmolase [1]
  Desmolase inhibition (in words): inhibits aromatase but not desmolase
Desmolase [1]; 7 micromolar (14C) cholesterol
  IC50 Desmolase: None
Central nervous system [4]; 200 mg/kg i.p.
  Abnormal gait: -
  Corneal reflex: +
  Flexor reflex: +
  Grooming: -
  Motor activity: N
  Righting reflex: +
  Tremors: -
  Twitches: -
  observable differences from control mice (in words): no grossly observable differences from the control mice
  Passivity: 0
Central nervous system [4]; 300 mg/kg i.p.
  Abnormal gait: -
  Corneal reflex: +
  Flexor reflex: +
  Grooming: +
  Motor activity: N
  Righting reflex: +
  Tremors: -
  Twitches: -
  spontaneous motor activity and struggle response (in words): some mice showed slight reduction in spontaneous motor activity and diminished struggle response
Central nervous system [4]; 400 mg/kg i.p.
  Corneal reflex: +
  Flexor reflex: +
  Grooming: +
  Motor activity: Dec
  Righting reflex: +
  Tremors: -
  Twitches: -
  activity, passivity and hindlimb control (in words): all mice were noticeably less active, more passive and had lost some control of their hindlimbs
  reflexes (in words): All reflexes were still evident and the augmented flexor reflex, as had been noted with APG and CPZ-treated animals, was not present
  Passivity: 3
Central nervous system [4]; 500 mg/kg i.p., three mice
  lethality: lethal to the three mice tested
Central nervous system [4]; [10]
  sedative side-effects: lower than that of aminoglutethimide
Central nervous system [5]; 300 mg/kg i.p.
  effect on motor co-ordination (in words): little difference from the control
Central nervous system [5]; 400 mg/kg i.p.
  effect on motor co-ordination (in words): the mice became more rigid, and while falling off the faster rod more frequently they tended to slump round the slowly rotating rod, and so stay on for a longer time
Central nervous system [5]; 1 r.p.m., 15 min, 300 mg/kg i.p.
  Falls/2 min: 0.6 ± 0.3 Falls/2 min
Central nervous system [5]; 1 r.p.m., 15 min, 400 mg/kg i.p.
  Falls/2 min: 0.8 ± 0.4 Falls/2 min
Central nervous system [5]; 1 r.p.m., 30 min, 400 mg/kg i.p.
  Falls/2 min: 0.4 ± 0.2 Falls/2 min
Central nervous system [5]; 3 r.p.m., 15 min, 300 mg/kg i.p.
  Falls/2 min: 1.5 ± 0.5 Falls/2 min
Central nervous system [5]; 3 r.p.m., 15 min, 400 mg/kg i.p.
  Falls/2 min: 4.8 ± 1.0 Falls/2 min
Central nervous system [5]; 3 r.p.m., 30 min, 300 mg/kg i.p.
  Falls/2 min: 2.0 ± 0.2 Falls/2 min
Central nervous system [5]; 3 r.p.m., 30 min, 400 mg/kg i.p.
  Falls/2 min: 3.6 ± 1.3 Falls/2 min
Central nervous system [5]
  time of peak effect after injection: 15 min
[6]
  percentage of tumours which regress (in words): shows a similar effect
  No. tumours grown by more than 100%: 8 tumours
  No. tumours grown by up to 100%: 6 tumours
  No. tumours regressed but by less than 50%: 3 tumours
  No. tumours regressed by 50% or more: 9 tumours
  No. tumours with no change: 1 tumours
[6]; [10]
  inhibition of tumour growth (in words): at least as effective an inhibitor of tumour growth in this assay as aminoglutethimide
[7]; 50 mg
  time within which salt came out of solution: ≤ 15 min

## CCC1(c2ccnc(C(C)(C)C)c2)CCC(=O)NC1=O (stereo not shown) [Example 4]
Desmolase [1]; 7 micromolar (14C) cholesterol
  IC50 Desmolase: None
aromatase; [9]
  IC50: 20 µM

## CCC1(c2ccccc2)CCC(=O)N(N)C1=O (stereo not shown) [N-aminoglutethimide, 1-amino-3-ethyl-3-phenylglutarimide]
Desmolase [1]
  Desmolase inhibition: + + +

## C1CCc2nnnn2CC1 [Pentylenetetrazol, pentylenetetrazol, reference compound]
Central nervous system [3]; 50 mg/kg after NaCl vehicle, within 5 minutes
  convulsant activity: Increased motor activity was followed by tonic convulsions, then severe clonic extensor convulsions which caused death

## CCC1(c2ccc(N)cc2)CCC(=O)NC1=O (stereo not shown) [aminoglutethimide, 3-ethyl-3-(4-aminophenyl)glutarimide, reference compound]
Central nervous system [3]; i.p., dose not stated
  prevention of pentylenetetrazol-induced convulsions: prevented convulsions
Desmolase [1]
  Desmolase inhibition: + + +
Desmolase [1]; 7 micromolar (14C) cholesterol
  IC50: 30 µM
Desmolase [8]
  inhibition of desmolase: also inhibits the enzyme desmolase
Central nervous system [4]; 100 mg/kg i.p.
  Corneal reflex: +
  Flexor reflex: Inc
  Grooming: +
  Motor activity: Dec
  Righting reflex: +
  Tremors: -
  Twitches: -
  corneal, righting and flexor reflexes (in words): Corneal, righting and flexor reflexes were still apparent
  sedation (in words): marked sedation
  Passivity: 3
Central nervous system [4]; 100 mg/kg i.p., compared to untreated animals
  flexor reflex (in words): slightly augmented
Central nervous system [4]; 200 mg/kg i.p., three animals
  sleep (in words): all fell asleep within a few minutes of the injection
Central nervous system [5]; 100 mg/kg i.p. (Table 3)
  effect on motor co-ordination (in words): pronounced effect on motor co-ordination. Most of the mice were heavily sedated and thus completely unable to maintain themselves on the rod at either speed
Central nervous system [5]; 1 r.p.m., 15 min, 100 mg/kg i.p.
  Falls/2 min: 18.5 ± 3.5 Falls/2 min
Central nervous system [5]; 1 r.p.m., 30 min, 100 mg/kg i.p.
  Falls/2 min: 4.8 ± 2.0 Falls/2 min
Central nervous system [5]; 3 r.p.m., 15 min, 100 mg/kg i.p.
  Falls/2 min: 27.0 ± 2.0 Falls/2 min
Central nervous system [5]
  time of peak effect after injection: 15 min
[6]
  percentage of tumours which regress (in words): causes an increase in the percentage of tumours which regress
  No. tumours grown by more than 100%: 5 tumours
  No. tumours grown by up to 100%: 2 tumours
  No. tumours regressed but by less than 50%: 3 tumours
  No. tumours regressed by 50% or more: 4 tumours
  No. tumours with no change: 0 tumours
[7]; 40 mg in 2 ml
  time after which salt precipitated from solution: > 2 h

## CN(C)CCCN1c2ccccc2Sc2ccc(Cl)cc21 [chlorpromazine]
Central nervous system [4]; 10 mg/kg i.p., particularly on the rotarod
  unpredictable jumping and darting movements: 5 out of 8

## CCC1(c2ccccn2)CCC(=O)NC1=O (stereo not shown) [drawing 11]
Desmolase [1]; 7 micromolar (14C) cholesterol
  IC50 Desmolase: None
aromatase
  IC50 Aromatase: None

## CCC1(c2ccccc2)CCC(=O)NC1=O (stereo not shown) [glutethimide, 3-ethyl-3-phenylglutarimide]
[2]
  sedative, hypnotic or anti-convulsive effect: sedative and hypnotic agent

## CCC1(c2cccc(N)c2)CCC(=O)NC1=O (stereo not shown) [m-aminoglutethimide, 3-ethyl-3-(3-aminophenyl)glutarimide]
Desmolase [1]
  Desmolase inhibition: + + +
aromatase
  Aromatase inhibition: +
